pIC50: −log10 of the molar value. Like-named read-outs stand apart in the source and are kept apart here. A value given as a limit tells only on which side of the number the result lay.

For test [1], the target named is T1, PKCα (Homo sapiens, UniProt P17252).
T1 construct: made in house; host or cells: HEK-293T
The test is described as follows: In vitro kinase assay (32P-MBP phosphorylation by immunoprecipitated HA-tagged PKC). The settings on record: MBP substrate, 100 μM cold ATP, 30 min at 32 °C. The class given is biochemical. As to the method: (§1) To test the effect of DTBN on the activity of PKC isoforms, in vitro kinase assays were performed in a dose–response experiment, and results are presented in Figure 1. At these concentrations, the kinase activities of PKCs were inhibited by DTBN in a dose-dependent manner, having the most profound effect on conventional PKCα and PKCγ as compared to other PKCs tested (Figure 1 and Table 1). […] Immunoblotting was performed with antibodies against HA-tagged different PKCs and against Myelin Basic Protein (MBP) as a loading control.
(§2) Figure 1 DTBN downregulates PKC catalytic activity in a concentration-dependent manner. In vitro kinase assays of indicated PKC isoforms were performed, as described in Materials and Methods, utilizing MBP as a substrate. Before the initiation of the assay, DTBN was added to the samples at several concentrations. Following the termination of the assay, sample proteins were then resolved by SDS-PAGE and developed by autoradiography (a). p^32-MBP and MBP protein band signals were quantified using Image Lab software, and the relative amounts of p^32-MBP/MBP were presented in a line graph (b). Immunoblotting against HA and MBP to detect overexpressed PKC expression, and MBP, respectively, monitor equal loading of samples. Data are representative of two independent experiments. Molecular weight markers (in kDa) are indicated on the left, and arrows mark the positions of the indicated protein bands. IgH, Ig heavy chain.
(§3) PKC kinase assays were performed, as described, using myelin-basic protein (5 μg/100 μL) (MBP, #M1891, Sigma-Aldrich, St. Louis, MO, USA) as a substrate. Whole-cell lysates (75 μg per sample) of HEK-293T cells, each overexpressing different HA-tagged PKCs, were subjected to immunoprecipitation using protein A/G-agarose bead-immobilized anti-HA mAbs (#MMS-101R, BioLegend, San Diego, CA, USA). The immunoprecipitates were washed four times with Triton X-100-containing lysis buffer, and lastly with PKC kinase assay buffer (20 mM HEPES, pH 7.5, 10 mM MgCl2, and 0.1 mM EGTA). The immunoprecipitates were then equally divided to Eppendorf safe-lock tubes, followed by the addition of indicated concentrations of DTBN (μg/mL) and subsequent incubation in a kinase reaction mixture (10 mM ΜgCl2, 20 mM HEPES, 0.1 mM EGTA, 50 μg/mL phosphatidylserine, and 5μCi γ-32P-ATP (PerkinElmer, Waltham, MA, USA), also including 100 μM cold ATP and 1.5 mM CaCl2 (for conventional PKCs), and incubated for 30 min at 32 °C with gentle shaking. Reactions were terminated by the addition of 5× sample buffer and boiling for 5 min, followed by SDS-PAGE (10% acrylamide gels) under reducing conditions. Samples were then transferred to nitrocellulose membranes (Sigma-Aldrich) that were developed by immunoblotting and autoradiography. After the detection of the phosphorylated substrate (^32P-MBP) by autoradiography, the membranes were probed with anti-HA and anti-MBP mAbs (#SMI-99P, BioLegend, San Diego, CA, USA), (loading controls). ^32P-MBP and MBP protein bands were quantified using Image Lab software (5.2.1).

Test [2] addresses T2, PKCγ (Homo sapiens, UniProt P05129).
T2 construct: made in house; host or cells: HEK-293T
The test is described as above. The class given is biochemical. The settings on record: MBP substrate, 100 μM cold ATP, 30 min at 32 °C. Here is the method: as §1, §2, §3

The target in test [3] is T3, PKCδ (Homo sapiens, UniProt Q05655).
T3 construct: made in house; host or cells: HEK-293T
T3 sequence (Q05655 whole entry): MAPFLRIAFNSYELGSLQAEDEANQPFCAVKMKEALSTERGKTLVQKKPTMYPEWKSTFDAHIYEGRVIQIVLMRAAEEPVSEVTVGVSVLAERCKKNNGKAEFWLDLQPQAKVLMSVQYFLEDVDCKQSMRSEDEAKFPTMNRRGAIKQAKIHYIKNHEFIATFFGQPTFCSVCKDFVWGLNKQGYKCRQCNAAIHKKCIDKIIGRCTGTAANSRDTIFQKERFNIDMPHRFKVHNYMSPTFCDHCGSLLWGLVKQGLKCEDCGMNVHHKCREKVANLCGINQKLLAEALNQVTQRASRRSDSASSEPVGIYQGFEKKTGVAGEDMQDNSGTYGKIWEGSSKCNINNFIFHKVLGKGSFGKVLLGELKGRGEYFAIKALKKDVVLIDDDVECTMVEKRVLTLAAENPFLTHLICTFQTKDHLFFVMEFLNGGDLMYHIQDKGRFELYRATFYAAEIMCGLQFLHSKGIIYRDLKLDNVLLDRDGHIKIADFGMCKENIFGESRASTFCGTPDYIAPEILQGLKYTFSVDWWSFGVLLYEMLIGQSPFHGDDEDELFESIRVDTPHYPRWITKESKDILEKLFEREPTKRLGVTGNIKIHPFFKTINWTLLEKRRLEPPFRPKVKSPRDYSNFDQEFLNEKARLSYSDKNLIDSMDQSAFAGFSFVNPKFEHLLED
The description is as above. The settings on record: MBP substrate, 100 μM cold ATP, 30 min at 32 °C. It counts as biochemical. Here is the method:
as §1, §2, §3

The target of test [4] is T4, PKCε (Homo sapiens, UniProt Q02156).
T4 construct: made in house; host or cells: HEK-293T
T4 sequence (Q02156 1-737): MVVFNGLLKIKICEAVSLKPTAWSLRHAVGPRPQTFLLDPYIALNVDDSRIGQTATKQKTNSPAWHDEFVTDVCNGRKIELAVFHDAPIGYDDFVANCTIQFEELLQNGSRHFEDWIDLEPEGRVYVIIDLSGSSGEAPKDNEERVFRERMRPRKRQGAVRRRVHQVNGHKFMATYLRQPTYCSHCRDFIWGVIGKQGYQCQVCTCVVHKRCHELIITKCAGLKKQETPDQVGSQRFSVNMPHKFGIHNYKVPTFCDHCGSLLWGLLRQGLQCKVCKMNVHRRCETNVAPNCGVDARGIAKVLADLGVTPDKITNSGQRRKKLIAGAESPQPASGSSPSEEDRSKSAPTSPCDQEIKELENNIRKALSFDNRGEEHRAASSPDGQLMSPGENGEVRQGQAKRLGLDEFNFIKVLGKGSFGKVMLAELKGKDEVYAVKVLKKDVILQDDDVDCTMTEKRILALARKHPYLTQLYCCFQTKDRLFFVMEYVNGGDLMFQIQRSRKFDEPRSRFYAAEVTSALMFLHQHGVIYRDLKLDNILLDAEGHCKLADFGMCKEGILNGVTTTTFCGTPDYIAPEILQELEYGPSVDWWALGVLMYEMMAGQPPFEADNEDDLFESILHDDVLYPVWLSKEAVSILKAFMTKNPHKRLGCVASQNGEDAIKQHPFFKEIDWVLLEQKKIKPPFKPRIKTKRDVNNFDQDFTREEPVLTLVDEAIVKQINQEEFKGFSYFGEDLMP
Described as above. The class given is biochemical. The settings on record: MBP substrate, 100 μM cold ATP, 30 min at 32 °C. Here is the method: as §1, §2, §3

The target of test [5] is T5, PKCζ (Homo sapiens, UniProt Q05513).
T5 construct: made in house; host or cells: HEK-293T
T5 sequence (Q05513 1-592): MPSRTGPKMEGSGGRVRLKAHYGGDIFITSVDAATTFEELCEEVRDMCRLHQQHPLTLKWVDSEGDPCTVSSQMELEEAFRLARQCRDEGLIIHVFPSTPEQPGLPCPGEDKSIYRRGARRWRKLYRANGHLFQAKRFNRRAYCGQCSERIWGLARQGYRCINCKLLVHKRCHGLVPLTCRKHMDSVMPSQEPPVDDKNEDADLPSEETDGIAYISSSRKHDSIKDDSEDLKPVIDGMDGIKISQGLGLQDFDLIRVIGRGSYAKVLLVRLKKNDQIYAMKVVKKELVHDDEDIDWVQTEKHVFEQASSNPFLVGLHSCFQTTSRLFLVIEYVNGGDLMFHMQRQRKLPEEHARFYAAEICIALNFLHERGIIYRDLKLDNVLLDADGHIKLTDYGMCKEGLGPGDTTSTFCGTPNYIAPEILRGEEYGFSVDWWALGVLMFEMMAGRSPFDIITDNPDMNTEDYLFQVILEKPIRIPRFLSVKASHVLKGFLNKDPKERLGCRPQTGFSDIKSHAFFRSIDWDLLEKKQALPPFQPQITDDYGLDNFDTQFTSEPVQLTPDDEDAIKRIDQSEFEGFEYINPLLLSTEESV
Described as above. The class given is biochemical. The settings on record: MBP substrate, 100 μM cold ATP, 30 min at 32 °C. Here is the method:
as §1, §2, §3

The target in test [6] is T6, PKCη (Homo sapiens, UniProt P24723). Described as above. It counts as biochemical. Particulars: MBP substrate, 100 μM cold ATP, 30 min at 32 °C. Here is the method: as §1, §2, §3
T6 sequence (P24723 whole entry): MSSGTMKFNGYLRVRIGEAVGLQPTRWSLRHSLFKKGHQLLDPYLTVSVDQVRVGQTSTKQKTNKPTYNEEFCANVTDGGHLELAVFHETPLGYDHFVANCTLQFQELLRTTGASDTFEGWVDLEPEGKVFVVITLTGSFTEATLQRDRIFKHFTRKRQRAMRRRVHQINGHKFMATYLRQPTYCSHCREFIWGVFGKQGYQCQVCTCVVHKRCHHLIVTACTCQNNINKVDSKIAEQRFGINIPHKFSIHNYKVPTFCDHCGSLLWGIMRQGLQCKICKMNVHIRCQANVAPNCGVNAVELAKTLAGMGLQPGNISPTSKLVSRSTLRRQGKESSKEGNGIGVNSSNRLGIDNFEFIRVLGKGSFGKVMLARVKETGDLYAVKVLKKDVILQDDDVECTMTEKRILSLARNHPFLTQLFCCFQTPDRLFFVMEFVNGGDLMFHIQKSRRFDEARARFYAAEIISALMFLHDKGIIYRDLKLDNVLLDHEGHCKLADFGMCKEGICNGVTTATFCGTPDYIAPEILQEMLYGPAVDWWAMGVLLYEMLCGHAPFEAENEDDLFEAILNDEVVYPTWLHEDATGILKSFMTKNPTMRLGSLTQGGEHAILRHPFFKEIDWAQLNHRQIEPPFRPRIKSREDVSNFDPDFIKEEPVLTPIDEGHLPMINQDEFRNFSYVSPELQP
The target of test [7] is T6, PKCη. Details: method as in PMID 22078216. The settings on record: co-crystallized inhibitor at PKCη; cited from earlier work.
[8] abbreviates: read-out: IC50 Values (μg/mL) (converted).

Take `CC1CCC(c2ccoc2)N2C1CCC1(CSC3(CCC4C(C)CCC(c5ccoc5)N4C3O)C1)C2O` (stereo not shown) [DTBN, 6,6′-dihydroxythiobinupharidine]: the pIC50 was 6.76 in test [1] (read-out: IC50 Values); 6.77 in test [2] (read-out: IC50 Values); below 4.72 in test [3] (read-out: IC50 Values); below 4.72 in test [3] (read-out: IC50 Values (μg/mL)); 4.85 in test [4] (read-out: IC50 Values); 4.73 in test [5] (read-out: IC50 Values). Further, the pIC50 in test [6] (read-out: IC50 Values) and in test [6] (read-out: IC50 Values (μg/mL)) was below 4.72 in each case. Besides, the IC50 in test [1] (setting [8]) was 0.175 µM; in test [2] (setting [8]), 0.169 µM; in test [4] (setting [8]), 14.2 µM; in test [5] (setting [8]) it was 18.6 µM.
`c1cc2cnccc2cn1` [2,6-Naphthyridine]: in test [7], the pIC50 is 8.05.

(Values after publication PMC8125885, “6,6′-Dihydroxythiobinupharidine (DTBN) Purified from Nuphar lutea Leaves Is an Inhibitor of Protein Kinase C Catalytic Activity” (Molecules, 2021).)
